± gives the expanded uncertainty stated by the source.
Assays:
[1] = Liquid; for mass density: 101.33 kPa, Pycnometric method; for vapor or sublimation pressure: Ebulliometric method (Recirculating still)
[2] = refractive index (Na D-line) (dimensionless); settings: 298.15 K; 101.33 kPa; Liquid; Standard Abbe refractometry

| Compound | mass density ([1]; 298.15 K) [kg/m3] | vapor or sublimation pressure ([1]; 320.54 K) [kPa] | vapor or sublimation pressure ([1]; 335.1 K) [kPa] | vapor or sublimation pressure ([1]; 344.53 K) [kPa] | vapor or sublimation pressure ([1]; 351.76 K) [kPa] | vapor or sublimation pressure ([1]; 359.38 K) [kPa] | vapor or sublimation pressure ([1]; 370.93 K) [kPa] | vapor or sublimation pressure ([1]; 379.83 K) [kPa] | vapor or sublimation pressure ([1]; 386.16 K) [kPa] | vapor or sublimation pressure ([1]; 393.18 K) [kPa] | vapor or sublimation pressure ([1]; 397.46 K) [kPa] | vapor or sublimation pressure ([1]; 401.87 K) [kPa] | vapor or sublimation pressure ([1]; 405.77 K) [kPa] | vapor or sublimation pressure ([1]; 410.02 K) [kPa] | refractive index [2] | vapor or sublimation pressure ([1]; 390.9 K) [kPa] | mass density ([1]; 293.15 K) [kg/m3] | vapor or sublimation pressure ([1]; 381.08 K) [kPa] |
| --- | --- | --- | --- | --- | --- | --- | --- | --- | --- | --- | --- | --- | --- | --- | --- | --- | --- | --- |
| CCOCOCC(C)C [1-(ethoxymethoxy)-2-methylpropane] | 823.8 ± 0.6 | 5 ± 0.05 | 10 ± 0.06 | 15 ± 0.09 | 20.02 ± 0.12 | 26.67 ± 0.17 | 39.9 ± 0.23 | 53.33 ± 0.3 | 64.8 ± 0.37 | 79.6 ± 0.44 | 89.9 ± 0.5 | 101.33 ± 0.55 | 112 ± 0.61 | 125 ± 0.67 | 1.3873 ± 0.0004 | – | – | – |
| CCCCO [butan-1-ol] | 809.5 ± 0.6 | – | – | – | – | – | – | – | – | – | – | – | – | – | 1.3971 ± 0.0004 | 101.33 ± 0.7 | – | – |
| CC(C)CO [2-methyl-1-propanol] | – | – | – | – | – | – | – | – | – | – | – | – | – | – | 1.3939 ± 0.0004 | – | 801.8 ± 0.6 | 101.33 ± 0.7 |

Source: the NIST ThermoML archive (doi:10.1021/acs.jced.7b00377)
